Species on record: Rattus norvegicus
Assay: Open TG-GATES - Regimen: Daily Repeat
Format: toxicity, organism-based, Sprague-Dawley
Parameters: regimen Daily Repeat, gender Male, age 6 weeks
Conditions: in vivo, po, 150 mg/kg, route gavage, dose level Middle; for APTT / Bas / Eos / Fbg / Hb / Ht / Lym / MCH / MCHC / MCV / Mono / Neu / PT / Plat / RBC / Ret / WBC: tissue Blood; for KIDNEY_L / KIDNEY_R / KIDNEY_TOTAL: tissue Kidney; for LIVER: tissue Liver; for A/G / ALP / ALT / AST / BUN / CRE / Ca / Cl / DBIL / GLC / IP / K / LDH / Na / PL / RALB / TBIL / TC / TG / TP / gamma-GTP: tissue Plasma

In the case of `CN1C(=O)OC(C)(C)C1=O` [TRIMETHADIONE], the TERMINAL_BW (72 h, time 3 day) is reported as 237.3 g, the APTT (72 h, time 3 day) is reported as 16.6 s and the Bas (72 h, time 3 day) is reported as 0%. It also gave an Eos (72 h, time 3 day) of 1.2%, a Fbg (72 h, time 3 day) of 277.6 mg/dL and a Hb (72 h, time 3 day) of 13.9 g/dL. The Ht (72 h, time 3 day) was 41.2%, the Lym (72 h, time 3 day) was 73.4% and the MCH (72 h, time 3 day) was 22 pg. The MCHC (72 h, time 3 day) was 33.7%, the MCV (72 h, time 3 day) was 65.2 fL and the Mono (72 h, time 3 day) was 2.8%. It also gave a Neu (72 h, time 3 day) of 22.6%, a PT (72 h, time 3 day) of 13 s and a Plat (72 h, time 3 day) of 127.9 x10_4/uL. The RBC (72 h, time 3 day) was 632 x10_4/ul, the Ret (72 h, time 3 day) was 6.9% and the WBC (72 h, time 3 day) was 82.5 x10_2/uL. The KIDNEY_L (72 h, time 3 day) was 1 g, the KIDNEY_R (72 h, time 3 day) was 0.9 g and the KIDNEY_TOTAL (72 h, time 3 day) was 1.9 g. For the same compound, the LIVER (72 h, time 3 day) was 11.2 g, the A/G (72 h, time 3 day) was 0.8 and the ALP (72 h, time 3 day) was 1577 IU/L. For the same compound, the ALT (72 h, time 3 day) was 42.4 IU/L, the AST (72 h, time 3 day) was 78.2 IU/L and the BUN (72 h, time 3 day) was 17.2 mg/dL. It also gave a CRE (72 h, time 3 day) of 0.2 mg/dL, a Ca (72 h, time 3 day) of 11.2 mg/dL and a Cl (72 h, time 3 day) of 105 meq/L. For the same compound, the DBIL (72 h, time 3 day) was 0.004 mg/dL, the GLC (72 h, time 3 day) was 180.6 mg/dL and the IP (72 h, time 3 day) was 6.9 mg/dL. It also gave a K (72 h, time 3 day) of 4.4 meq/L, an LDH (72 h, time 3 day) of 85.6 IU/L and a Na (72 h, time 3 day) of 142.2 meq/L. For the same compound, the PL (72 h, time 3 day) was 172.8 mg/dL, the RALB (72 h, time 3 day) was 2.6 g/dL and the TBIL (72 h, time 3 day) was 0.042 mg/dL. The TC (72 h, time 3 day) was 91.4 mg/dL, the TG (72 h, time 3 day) was 115.6 mg/dL and the TP (72 h, time 3 day) was 5.7 g/dL. The gamma-GTP (72 h, time 3 day) was 1 IU/L, the TERMINAL_BW ([…], time 7 day) was 275.1 g and the TERMINAL_BW ([…], time 14 day) was 335.8 g. For the same compound, the TERMINAL_BW ([…], time 28 day) was 410.9 g, the APTT ([…], time 7 day) was 22.2 s and the Bas ([…], time 7 day) was 0%. For the same compound, the Eos ([…], time 7 day) was 1%, the Fbg ([…], time 7 day) was 283.8 mg/dL and the Hb ([…], time 7 day) was 13.8 g/dL. For the same compound, the Ht ([…], time 7 day) was 40.4%, the Lym ([…], time 7 day) was 75% and the MCH ([…], time 7 day) was 21.5 pg. It also gave an MCHC ([…], time 7 day) of 34.1%, an MCV ([…], time 7 day) of 62.9 fL and a Mono ([…], time 7 day) of 2.6%. For the same compound, the Neu ([…], time 7 day) was 21.2%, the PT ([…], time 7 day) was 13.9 s and the Plat ([…], time 7 day) was 129.5 x10_4/uL. For the same compound, the RBC ([…], time 7 day) was 642.6 x10_4/ul, the Ret ([…], time 7 day) was 5.6% and the WBC ([…], time 7 day) was 92.5 x10_2/uL. The APTT ([…], time 14 day) was 25.9 s, the Bas ([…], time 14 day) was 0.2% and the Eos ([…], time 14 day) was 1%. The Fbg ([…], time 14 day) was 268.4 mg/dL, the Hb ([…], time 14 day) was 14.4 g/dL and the Ht ([…], time 14 day) was 41.6%. For the same compound, the Lym ([…], time 14 day) was 71.6%, the MCH ([…], time 14 day) was 20.8 pg and the MCHC ([…], time 14 day) was 34.6%. The MCV ([…], time 14 day) was 60.2 fL, the Mono ([…], time 14 day) was 2.2% and the Neu ([…], time 14 day) was 24.6%. It also gave a PT ([…], time 14 day) of 13.6 s, a Plat ([…], time 14 day) of 123.5 x10_4/uL and an RBC ([…], time 14 day) of 691.2 x10_4/ul. For the same compound, the Ret ([…], time 14 day) was 4.5%, the WBC ([…], time 14 day) was 132.8 x10_2/uL and the APTT ([…], time 28 day) was 21.9 s. It also gave a Bas ([…], time 28 day) of 0%, an Eos ([…], time 28 day) of 1.2% and a Fbg ([…], time 28 day) of 270.8 mg/dL. For the same compound, the Hb ([…], time 28 day) was 15.8 g/dL, the Ht ([…], time 28 day) was 45% and the Lym ([…], time 28 day) was 74.8%. The MCH ([…], time 28 day) was 19.6 pg, the MCHC ([…], time 28 day) was 35% and the MCV ([…], time 28 day) was 56.2 fL. For the same compound, the Mono ([…], time 28 day) was 2%, the Neu ([…], time 28 day) was 21.8% and the PT ([…], time 28 day) was 14.3 s. For the same compound, the Plat ([…], time 28 day) was 113.7 x10_4/uL, the RBC ([…], time 28 day) was 800.2 x10_4/ul and the Ret ([…], time 28 day) was 2%. It also gave a WBC ([…], time 28 day) of 103.2 x10_2/uL, a KIDNEY_L ([…], time 7 day) of 1.3 g and a KIDNEY_R ([…], time 7 day) of 1.2 g. The KIDNEY_TOTAL ([…], time 7 day) was 2.5 g, the KIDNEY_L ([…], time 14 day) was 1.4 g and the KIDNEY_R ([…], time 14 day) was 1.4 g. For the same compound, the KIDNEY_TOTAL ([…], time 14 day) was 2.8 g, the KIDNEY_L ([…], time 28 day) was 1.6 g and the KIDNEY_R ([…], time 28 day) was 1.7 g. For the same compound, the KIDNEY_TOTAL ([…], time 28 day) was 3.3 g, the LIVER ([…], time 7 day) was 13 g and the LIVER ([…], time 14 day) was 15.2 g. For the same compound, the LIVER ([…], time 28 day) was 16.5 g, the A/G ([…], time 7 day) was 0.9 and the ALP ([…], time 7 day) was 1744.2 IU/L. It also gave an ALT ([…], time 7 day) of 51.6 IU/L, an AST ([…], time 7 day) of 85.6 IU/L and a BUN ([…], time 7 day) of 15.8 mg/dL. It also gave a CRE ([…], time 7 day) of 0.2 mg/dL, a Ca ([…], time 7 day) of 10.8 mg/dL and a Cl ([…], time 7 day) of 103.4 meq/L. It also gave a DBIL ([…], time 7 day) of 0.01 mg/dL, a GLC ([…], time 7 day) of 192.6 mg/dL and an IP ([…], time 7 day) of 6.9 mg/dL. For the same compound, the K ([…], time 7 day) was 4.2 meq/L, the LDH ([…], time 7 day) was 92.4 IU/L and the Na ([…], time 7 day) was 144.2 meq/L. For the same compound, the PL ([…], time 7 day) was 159.8 mg/dL, the RALB ([…], time 7 day) was 2.6 g/dL and the TBIL ([…], time 7 day) was 0.04 mg/dL. It also gave a TC ([…], time 7 day) of 74.2 mg/dL, a TG ([…], time 7 day) of 138.2 mg/dL and a TP ([…], time 7 day) of 5.7 g/dL. It also gave a gamma-GTP ([…], time 7 day) of 1.2 IU/L, an A/G ([…], time 14 day) of 0.8 and an ALP ([…], time 14 day) of 1516.8 IU/L. The ALT ([…], time 14 day) was 46.8 IU/L, the AST ([…], time 14 day) was 73.2 IU/L and the BUN ([…], time 14 day) was 16.4 mg/dL. For the same compound, the CRE ([…], time 14 day) was 0.2 mg/dL, the Ca ([…], time 14 day) was 10.7 mg/dL and the Cl ([…], time 14 day) was 102.6 meq/L. The DBIL ([…], time 14 day) was 0.004 mg/dL, the GLC ([…], time 14 day) was 180.6 mg/dL and the IP ([…], time 14 day) was 6.6 mg/dL. The K ([…], time 14 day) was 4.2 meq/L, the LDH ([…], time 14 day) was 116.4 IU/L and the Na ([…], time 14 day) was 144.2 meq/L. For the same compound, the PL ([…], time 14 day) was 154.4 mg/dL, the RALB ([…], time 14 day) was 2.7 g/dL and the TBIL ([…], time 14 day) was 0.032 mg/dL. For the same compound, the TC ([…], time 14 day) was 73.2 mg/dL, the TG ([…], time 14 day) was 138.8 mg/dL and the TP ([…], time 14 day) was 6.2 g/dL. It also gave a gamma-GTP ([…], time 14 day) of 1 IU/L, an A/G ([…], time 28 day) of 0.8 and an ALP ([…], time 28 day) of 1150.5 IU/L. It also gave an ALT ([…], time 28 day) of 37.8 IU/L, an AST ([…], time 28 day) of 77.5 IU/L and a BUN ([…], time 28 day) of 16 mg/dL. The CRE ([…], time 28 day) was 0.3 mg/dL, the Ca ([…], time 28 day) was 10.4 mg/dL and the Cl ([…], time 28 day) was 101.8 meq/L. For the same compound, the DBIL ([…], time 28 day) was 0.005 mg/dL, the GLC ([…], time 28 day) was 170.8 mg/dL and the IP ([…], time 28 day) was 5.5 mg/dL. The K ([…], time 28 day) was 4.1 meq/L, the LDH ([…], time 28 day) was 77.2 IU/L and the Na ([…], time 28 day) was 143 meq/L. It also gave a PL ([…], time 28 day) of 161 mg/dL, an RALB ([…], time 28 day) of 2.7 g/dL and a TBIL ([…], time 28 day) of 0.0325 mg/dL. For the same compound, the TC ([…], time 28 day) was 76.8 mg/dL, the TG ([…], time 28 day) was 146.8 mg/dL and the TP ([…], time 28 day) was 6.2 g/dL. It also gave a gamma-GTP ([…], time 28 day) of 1.2 IU/L.
